From US11779572B1, “Methods of treating gastrointestinal stromal tumors” (Deciphera Pharmaceuticals, LLC, priority 2022, dated 2023)
Like-named read-outs stand apart in the source and are kept apart here.

Legend:
[1] = Coadministration with pantoprazole (proton-pump inhibitor); assay type: in vivo, human; conditions: 40 mg QD pantoprazole with 150 mg QD ripretinib
Protocol: The effect of a proton-pump inhibitor on the exposure of ripretinib was evaluated.

[2] = Food effect (high-fat meal) on exposure; assay type: in vivo, human; conditions: 150 mg dose of ripretinib
Protocol: The effect of a high-fat breakfast on ripretinib and Compound A exposure was evaluated. A high fat meal consisted of approximately 150, 250, and 500-600 calories from protein, carbohydrate, and fat, respectively. […] The food effect is not considered to be clinically significant based on exposure-response analysis. Therefore, ripretinib may be taken with or without food at approximately same time each day.

[3] = Unbound fraction / plasma protein binding; assay type: in vitro ADME, human; conditions: human, plasma, oral, 50 mg, read-out: unbound fraction fu %
Excerpt: (§1) Both ripretinib and DP-5439 display high binding to plasma proteins in vitro; therefore, clinical samples were collected to investigate the effect of HI on the unbound fraction (fu) % for both analytes. Distributions of individual mean fu % for both ripretinib and DP-5439 show high variability between participants. The ripretinib mean fu % was ≤0.6% in healthy participants and in participants with hepatic impairment. The DP-5439 fu % was ≤0.5% in healthy participants and 0.2% to 1.4% in participants with hepatic impairment. No clear trend could be established between unbound ripretinib and DP-5439 PK parameters and the degrees of HI.

plasma proteins = experiment: Unbound fraction / plasma protein binding; assay type: in vitro ADME, human
Excerpt: as §1

[4] = Observed clinical PK after single and multiple doses; assay type: in vivo; conditions: human, plasma, oral; SD administration, healthy participants
Protocol: CYP3A4 inactivation parameters and induction parameters were subsequently incorporated in the model to assess the net effect on drug clearance at steady state. Due to the uncertainty in the in vitro CYP3A4 MBI data and CYP3A4 induction data, a series of sensitivity analysis was performed. […] Therefore, the in vitro CYP3A4 interaction data were used in the final model. The simulated profiles of ripretinib and DP-5439 in virtual participants were compared to the clinical data. […] The predicted mean AUC0-12 values for DP-5439 on Day 1 were within 2-fold (majority within 1.5-fold) of the observed values, except for the 250-mg QD dose. The mean AUC0-12 and Cmax values for DP-5439 on Day 15 were under-predicted. […] For example, the reported AUCs for ripretinib and DP-5439 at the 150-mg QD dose level were 1.66 and 5.29, respectively. […] The mechanisms for the accumulation of DP-5439 were unclear.

[5] = PBPK model of ripretinib and DP-5439 (Simcyp Simulator)
Excerpt: A PBPK model that included a mechanistic absorption model was developed.
Thus, potential auto-induction and auto-inhibition effects were captured within the model.
Single dose (SD) PK data from participants with mild, moderate, and severe HI were used to refine and/or verify the PBPK model. […] Subsequently, the corresponding plasma concentration-time profiles in HI participants were likewise simulated and compared to the observed data.
Predictions of plasma drug concentration-time profiles, clearance and DDIs were performed in the Simcyp Simulator using a population of virtual participants. The default healthy participant population was applied in all simulations involving healthy participants. […] With the exception of demographic data, all parameter values for the healthy participant population were the same as those used for the North European Caucasian population.
For simulations involving cancer participants, the North European Caucasian population was used to accommodate the wider age range observed in this population (19 to 87 years old; median 61 years). Weibull age distribution was applied with alpha and beta values of 5.47 and 66.5 years for male participants and 5.22 and 68.57 years for female participants. Age, height and weight distributions for the simulated virtual participant population were consistent with those from the first-in-human dose-escalation study in cancer patients.
For simulations involving participants with HI, 3 population models have been developed for the Simcyp Simulator and are based on the 3 Child-Pugh categories (CP-A, CP-B and CP-C). […] When reduced hepatic size was also taken into account, overall CYP3A4 expression in CP-A, CP-B and CP-C participants was reduced to 69%, 36% and 20%, respectively, to that of healthy participants.

SMILES: CCn1c(=O)c(-c2cc(NC(=O)Nc3ccccc3)c(F)cc2Br)cc2cnc(N)cc21 [Compound A]
- plasma exposure when ripretinib is coadministered with pantoprazole [1]: No clinically significant differences
- AUC0-24h higher with a high-fat meal [2]: 47%
- Cmax higher with a high-fat meal [2]: 66%
- fraction unbound ([3]; healthy participants): ≤ 0.005
- fraction unbound ([3]; participants with hepatic impairment): 0.002 to 0.014
- binding to plasma proteins (plasma proteins; in vitro): high binding
- impact of HI (albumin, ALP, ALT, AST, bilirubin changes) on unbound exposure (plasma proteins; visual assessment): did not appear to have an impact
- half-life [4]: ~17 h
- all predictions relative to observed ([5]; 150 mg QD dose): ≤ 2 fold
- predicted mean AUC0-12 relative to observed values ([5]; Day 1, except 250-mg QD dose): ≤ 2 fold
